What all share (format): in vivo
For experiment [1], the system named is green peach aphid (Myzus persicae). Nature of the experiment: Enhancement of activity by ammonium/phosphonium salts, Myzus persicae test. Particulars: Myzus persicae on bell pepper, active compound 4 ppm. The protocol:
To produce a suitable preparation of active compound, 1 part by weight of active compound is mixed with the stated amounts of solvent and emulsifier, and the concentrate is diluted with water to the desired concentration. For application with ammonium or phosphonium salts, these are added to the spray liquor in a concentration of 1000 ppm.
(§1) Bell pepper plants (Capsicum annuum) which are heavily infested by the green peach aphid (Myzus persicae) are treated by spraying to runoff point with the active compound preparation of the desired concentration. After the desired period of time, the kill in % is determined. 100% means that all animals have been killed; 0% means that none of the animals have been killed.

Experiment [2] deals with cotton aphid (Aphis gossypii). Description: Enhancement of activity by ammonium/phosphonium salts, Aphis gossypii test. Conditions: Aphis gossypii on cotton, active compound 4 ppm. Here is the method: To produce a suitable preparation of active compound, 1 part by weight of active compound is mixed with the stated amounts of solvent and emulsifier, and the concentrate is diluted with emulsifier-containing water to the desired concentration. For application with ammonium or phosphonium salts, these are added to the spray liquor in a concentration of 1000 ppm.
Cotton plants (Gossypium hirsutum) which are heavily infested by the cotton aphid (Aphis gossypii) are treated by spraying to runoff point with the active compound preparation of the desired concentration.
After the desired period of time, the kill in % is determined. 100% means that all the aphids have been killed; 0% means that none of the aphids have been killed.

Experiment [3] has as its system green peach aphid (Myzus persicae). Description: Enhancement of activity by ammonium/phosphonium salts in combination with penetrants, Myzus persicae test. The protocol:
To produce a suitable preparation of active compound, 1 part by weight of active compound is mixed with the stated amounts of solvent and emulsifier, and the concentrate is diluted with water to the desired concentration. For application with ammonium or phosphonium salts and penetrants (rapeseed oil methyl ester 500 EW) these are added to the spray liquor in each case in a concentration of 1000 ppm.
as §1

Turning to `Cc1cc(C)c(C2=C(O)C3(CCC(OCC(F)(F)F)CC3)NC2=O)c(C)c1` (mixture of isomers) [Example I-1-a-5], the “Kill rate/% after 6 days” value came to 99% in experiment [1] (+AS (1000 ppm)) and 5% in experiment [1] (without AS).
Turning to `Cc1cc(Cl)cc(C)c1C1=C(O)[C@]2(CC[C@H](OCC(F)(F)F)CC2)NC1=O` [Example I-1-a-1], the “Kill rate/% after 6 days” value in experiment [2] (+AS (1000 ppm)) is given as 95%; in experiment [2] (without AS), 25%; in experiment [3] (0.8 ppm, +AS (1000 ppm)) it was 0%; in experiment [3] (0.8 ppm, +RME (1000 ppm)), 0%; in experiment [3] (0.8 ppm, +RME + AS (1000 ppm each)), 95%; in experiment [3] (0.8 ppm, no additive), 0%. Also, the “Kill rate/% after 6 days” value in experiment [3] (4 ppm, +AS (1000 ppm)) was determined as 90%; in experiment [3] (4 ppm, +RME (1000 ppm)), 99%; in experiment [3] (4 ppm, +RME + AS (1000 ppm each)), 100%; in experiment [3] (4 ppm, no additive) it was 95%.

The record behind these values is US8435549B2, “Halogen alkoxy spirocyclic tetramic and tetronic acid derivatives” (Bayer Cropscience AG, priority 2007, dated 2013).
